Assay results from patent US4338330A, “Benzimidazole derivatives, their use, and compositions containing these derivatives” (Continental Pharma, priority 1979, dated 1982).
Entries after “also recorded” stand apart in the source; their conditions may differ. Where a name gives a salt, the structure may show the parent alone.

Assays:
[1] = test system: β1 cardiac receptors versus β2 tracheal receptors; assay: Cardioselectivity (auricles versus trachea); design: species or system guinea pig; conditions: for times more active on β cardiac receptors than on β2 receptors: from difference of pA2 on auricles and trachea
Protocol: (§1) The effect on β1 cardiac receptors is measured by inhibition of the chronotropic response to noradrenaline of guinea pig auricles and of the inotrope response to isoproterenol of guinea pig left auricles which were electrically stimulated. The cardioselectivity is appreciated by measuring the antagonist effect at the level of β2 receptors of the guinea pig trachea. To this end, a tracheal chain is contracted by a maximum concentration of histamine and inhibition of relaxation by isoproterenol is measured. The values calculated for cardioselectivity are obtained by considering the difference between pA2 values of the chronotrope response and the relaxation on the one hand (1st column) and of the inotrope response and relaxation on the other hand (2nd column). For these various experiences, pA2 is calculated according to the Van Rossum method (Arch. Inern. Pharmacodyn., 143, 299-330, 1963).

β1 cardiac receptors [2] = molecular target: T1, β1 cardiac receptors (Cavia porcellus, UniProt H0W3H1); assay: β-lytic activity: inhibition of chronotropic response to noradrenaline of auricles (pA2); design: species or system guinea pig
T1 construct: chronotropic response to noradrenaline of guinea pig auricles; from tissue; host or cells: guinea pig auricles (chronotropic response); electrically stimulated guinea pig left auricles (inotropic response)
T1 sequence (H0W3H1 1-470): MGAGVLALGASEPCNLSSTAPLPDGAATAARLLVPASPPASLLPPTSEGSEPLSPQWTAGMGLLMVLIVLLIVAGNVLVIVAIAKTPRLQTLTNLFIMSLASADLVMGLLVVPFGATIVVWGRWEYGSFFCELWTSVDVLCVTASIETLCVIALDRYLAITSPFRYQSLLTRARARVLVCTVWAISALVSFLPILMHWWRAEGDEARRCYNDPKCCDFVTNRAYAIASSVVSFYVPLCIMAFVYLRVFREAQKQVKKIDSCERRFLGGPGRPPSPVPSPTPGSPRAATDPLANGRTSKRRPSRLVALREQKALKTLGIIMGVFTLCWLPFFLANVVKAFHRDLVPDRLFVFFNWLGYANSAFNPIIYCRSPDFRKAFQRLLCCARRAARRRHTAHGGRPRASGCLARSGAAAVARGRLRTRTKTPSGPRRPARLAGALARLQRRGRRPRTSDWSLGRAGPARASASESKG
Protocol: as §1, with “column).” for “column). For these various experiences, pA2 is calculated according to the Van Rossum method (Arch. Inern. Pharmacodyn., 143, 299-330, 1963).”

β1 cardiac receptors [3] = molecular target: T1, β1 cardiac receptors; assay: β-lytic activity: inhibition of inotrope response to isoproterenol of electrically stimulated left auricles (pA2); design: species or system guinea pig
Protocol: as §1, with “column).” for “column). For these various experiences, pA2 is calculated according to the Van Rossum method (Arch. Inern. Pharmacodyn., 143, 299-330, 1963).”

[4] = LD50 in mice, oral (Lichtfield and Wilcoxon method); format: in vivo; conditions: mouse, in vivo, po, read-out: LD50
Protocol: LD50 were determined according to the Lichtfield and Wilcoxon method (J. Pharmacol. Exp. Ther. 96, 99, 1949) and expressed in mg/kg. The products were administered to mice orally.

platelet agglutination = assay: Inhibition of platelet agglutination in plasma (turbidimetric method, Thrombofax); format: cell-based; conditions: plasma rich in platelets, preincubated 4 minutes
Protocol: The measure of platelet agglutination inhibition was made according to the turbidimetric method of G. V. R. Born and M. J. Cross (J. Physiol., 168, 178, […]). The plasma rich in platelets was preincubated for 4 minutes before addition of the inducing agent, namely Thrombofax. The variations of turbidity were recorded for a period of 10 minutes with a "Chronolog" agglutinometer. The inhibition of the maximum amplitude of agglutination was measured.

[5] = Peripheral vasodilator activity, anesthetized dog, femoral arterial circulation; format: in vivo; conditions: 30 μg/kg injected directly
Protocol: The peripheral vasodilator activity was measured on anesthetized dog at the level of femoral arterial circulation. To this end, the femoral artery the collaterals of which have been ligated is perfused at constant rate with blood taken from aorta. The perfusion pressure measured at the level of the femoral artery thus varies as a function of the resistance of the perfused area. The tested products and the corresponding solvents are directly injected at the dose of 30 μg/kg. The cardiac output being maintained constant, a vasodilation is thus measured by a decrease of the perfusion pressure. The latter is scored in comparison with the action of papaverine, considered as a reference and injected one time by group of 4 products. When interesting, the products are tested with other doses under the same conditions.
The vasodilator activity is appreciated as follows: […]

[6] = test system: guinea pig ileum contractions induced by histamine; assay: Antispasmodic activity against ileum contractions induced by histamine
Protocol: (§2) The antispasmodic activity of the studied substances was examined against guinea pig ileum contractions induced by histamine and acetylcholine.
(§3) These experiences allow to make it obvious an antihistaminic, anticholinergic or musculotrope activity. The response to the contracting agent (sub-maximum concentration) is obtained every 5 minutes before and after injection of increasing concentrations of tested products (10^-7 M to 10^-4 M). The inhibition percentage under the influence of tested products is calculated and the theoretical concentration giving 50% of inhibition is graphically determined for each experience. These values are expressed in -log CI50 (M).

[7] = test system: guinea pig ileum contractions induced by acetylcholine; assay: Antispasmodic activity against ileum contractions induced by acetylcholine
Protocol: as §2, §3

[8] = Antihypertensive activity, oral, unanesthetized spontaneously hypertensive rats; format: in vivo; conditions: 60 mg/kg oral; for Antihypertensive activity (score): spontaneously hypertensive rats; for Antihypertensive activity (index): systolic pressure difference (cmHg) every 30 min multiplied by time coefficient 1 to 6
Protocol: […] Only rats having a systolic pressure of 180 to 220 mm Hg are used. Two rats are used by product. The treatments are administered without the knowledge of the person making the measure.
The antihypertensive effects were recorded according to a score followed by an index. The scoring system is as follows.
The index is calculated by multiplying the systolic pressure difference (cmHg) measured every 30 minutes after the treatment, by a coefficient of 1 to 6 corresponding to times of 30 to 180 minutes.

[9] = test system: isolated guinea pig auricles; assay: Chronotrope effect of the substance on isolated auricles; conditions: 10^-6 M, 20 minutes, Tyrode, 29° C.
Protocol: The β-lytic effect was searched on the chronotropic response to noradrenaline of isolated guinea pig auricles. Auricles were incubated for 20 minutes in a Tyrode solution at 29° C. in the presence of the substance to be tested at the concentration of 10^-6 M. A positive (+) or negative (-) chronotrope effect of the substance was noted using the following scores: […]

[10] = test system: chronotropic response to noradrenaline of isolated guinea pig auricles; assay: β-lytic effect on the chronotropic response to noradrenaline of isolated auricles
Protocol: The β-lytic effect was searched on the chronotropic response to noradrenaline of isolated guinea pig auricles. Auricles were incubated for 20 minutes in a Tyrode solution at 29° C. in the presence of the substance to be tested at the concentration of 10^-6 M. A positive (+) or negative (-) chronotrope effect of the substance was noted using the following scores:
Then, the chronotrope effect of cumulative increasing concentrations of noradrenaline was recorded. The pD2 (-log CE50) value was calculated. A score of β-lytic activity of the substance was given as follows:
If the score at concentration of 10^-6 M was 3 or 4, the effect of the substance was examined at concentration of 10^-7 M and a score was recorded according to the same procedure.

[11] = molecular target: T2, β2 receptors of the guinea pig trachea (Cavia porcellus, UniProt Q8K4Z4); assay: Antagonist effect on relaxation of trachea by isoproterenol (pA2); conditions: histamine-contracted tracheal chain, read-out: β-lytic activity, pA2 trachea relaxation (converted)
T2 construct: β2 receptors of the guinea pig trachea; from tissue; host or cells: guinea pig tracheal chain contracted by histamine
T2 sequence (Q8K4Z4 whole entry): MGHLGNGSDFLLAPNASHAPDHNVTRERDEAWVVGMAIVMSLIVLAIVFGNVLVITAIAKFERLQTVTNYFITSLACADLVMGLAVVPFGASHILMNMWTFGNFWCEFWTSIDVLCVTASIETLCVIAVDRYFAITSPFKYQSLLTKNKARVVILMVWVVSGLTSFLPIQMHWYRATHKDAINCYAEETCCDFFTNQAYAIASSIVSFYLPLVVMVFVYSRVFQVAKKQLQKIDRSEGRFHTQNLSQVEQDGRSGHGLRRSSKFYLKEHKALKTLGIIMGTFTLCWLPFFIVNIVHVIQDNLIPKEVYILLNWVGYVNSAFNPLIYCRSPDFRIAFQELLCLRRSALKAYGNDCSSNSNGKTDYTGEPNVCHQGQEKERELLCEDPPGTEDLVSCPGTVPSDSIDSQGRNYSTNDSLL
Protocol: as §1, with “column).” for “column). For these various experiences, pA2 is calculated according to the Van Rossum method (Arch. Inern. Pharmacodyn., 143, 299-330, 1963).”

| SMILES | times more active on β cardiac receptors than on β2 receptors [1] | Kb (β1 cardiac receptors [2]) [µM] | Kb (β1 cardiac receptors [3]) [µM] | LD50 [4] [mg/kg] | Inhibition of platelet agglutination (platelet agglutination) | Peripheral vasodilator activity [5] | Antispasmodic activity, Hist. (-log CI50 (M)) [6] | Antispasmodic activity, Ac. Chol. (-log CI50 (M)) [7] | Antihypertensive activity (score) [8] | Chronotrope effect (score) [9] | β-lytic effect (score) ([10]; 10^-6 M) | Antihypertensive activity (index) [8] | Cardioselectivity ([1]; Table III, from pA2 auricles and trachea) | Cardioselectivity (in words) ([1]; guinea pig auricles vs trachea) | Activity on β cardiac receptors (in words) (β1 cardiac receptors [2]) | Kb (β1 cardiac receptors [2]; noradrenaline, read-out: β-lytic activity, pA2 auricles chronotrope response (converted)) [µM] | Kb [11] [µM] | β-lytic effect (score) ([10]; 10^-7 M) | Kb (β1 cardiac receptors [3]; isoproterenol, electrically stimulated left auricles, read-out: β-lytic activity, pA2 auricles inotrope response (converted)) [µM] |
| --- | --- | --- | --- | --- | --- | --- | --- | --- | --- | --- | --- | --- | --- | --- | --- | --- | --- | --- | --- |
| CC(C)NCC(O)COc1ccc(CC(N)=O)cc1 (stereo not drawn) [Atenolol, reference compound] | 50 times | 0.0447 | 0.129 |  |  |  |  |  |  |  |  |  |  |  |  |  |  |  |  |
| CCCCCCCCNCC(O)COc1ccc(-c2nc3ccccc3[nH]2)cc1 (stereo not drawn) [Compound 2, 2-[4-(3-n-octylamino-2-hydroxypropoxy)phenyl]benzimidazole] |  |  |  | > 300 | active | active | 6.46 -log CI50 (M) | 6.64 -log CI50 (M) | 0 (reduction <10 mm Hg) |  |  |  |  |  |  |  |  |  |  |
| OC(CNCCOc1ccccc1)COc1ccc(-c2nc3ccccc3[nH]2)cc1 (stereo not drawn) [Compound 3, 2-{4-[3-(2-phenoxyethylamino)-2-hydroxypropoxy]phenyl}benzimidazole] |  |  |  | > 3000 |  | active | 6.52 -log CI50 (M) | 6.43 -log CI50 (M) | +++ (reduction of 30 to 50 mm Hg) | 0 (if the frequency modification was comprised between +6 and -6) | 2 (if 6.40≥pD2 ≥6.01) | 50 |  |  |  |  |  |  |  |
| COc1ccc(CCNCC(O)COc2ccc(-c3nc4ccccc4[nH]3)cc2)cc1OC (stereo not drawn) [Compound 5, 2-[[4-{3-[2-(3,4-dimethoxyphenyl)ethylamino]-2-hydroxypropoxy}phenyl]]benzimidazole] | more than 5600 times |  |  | > 3000 |  |  | 5.80 -log CI50 (M) | 5.69 -log CI50 (M) | +++ (reduction of 30 to 50 mm Hg) | 0 (if the frequency modification was comprised between +6 and -6) | 3 (if 6.00≥pD2 ≥5.51) | 34 | > 1.91 | important cardioselectivity; also recorded: much higher than that of metopropol and atenolol | active β-agents on β cardiac receptors | 0.0214 | > 100 | 2 (if 6.40≥pD2 ≥6.01) | 0.0398 |
| OC(CNCCCCc1ccccc1)COc1ccc(-c2nc3ccccc3[nH]2)cc1 (stereo not drawn) [Compound 6] |  |  |  | > 3000 |  | active | 6.89 -log CI50 (M) | 7.12 -log CI50 (M) | 0 (reduction <10 mm Hg) | -1 | 0 (if pD2 ≥6.81) |  |  |  |  |  |  |  |  |
| CC(CCc1ccccc1)NCC(O)COc1ccc(-c2nc3ccccc3[nH]2)cc1 (stereo not drawn) [Compound 7] |  |  |  | > 3000 |  | active | 6.25 -log CI50 (M) | 6.23 -log CI50 (M) | + (reduction of 10 to 20 mm Hg) | 0 (if the frequency modification was comprised between +6 and -6) | 0 (if pD2 ≥6.81) | 18 |  |  |  |  |  |  |  |
| Cc1ccc2[nH]c(-c3ccc(OCC(O)CNC(C)C)cc3)nc2c1 (stereo not drawn) [Compound 14, 2-[4-(3-isopropylamino-2-hydroxypropoxy)phenyl]-5(6)-methylbenzimidazole (hydrochloride)] |  |  |  | 1450 |  |  | 4.85 -log CI50 (M) | 5.10 -log CI50 (M) | ++++ (reduction>50 mm Hg) | 1 | 4 (if pD2 ≤5.50) | 83 |  |  |  |  |  | 2 (if 6.40≥pD2 ≥6.01) |  |
| Cc1cc2nc(-c3ccc(OCC(O)CNC(C)C)cc3)[nH]c2cc1C (stereo not drawn) [Compound 15] |  |  |  | 1450 |  |  | 5.45 -log CI50 (M) | 5.38 -log CI50 (M) | ++++ (reduction>50 mm Hg) | 0 (if the frequency modification was comprised between +6 and -6) | 3 (if 6.00≥pD2 ≥5.51) | 110 |  |  |  |  |  | 1 (if 6.80≥pD2 ≥6.41) |  |
| CC(C)NCC(O)COc1ccc(-c2nc3cc(Cl)ccc3[nH]2)cc1 (stereo not drawn) [Compound 16] |  |  |  | 1100 |  |  | 5.58 -log CI50 (M) | 5.25 -log CI50 (M) | ++++ (reduction>50 mm Hg) | 0 (if the frequency modification was comprised between +6 and -6) | 3 (if 6.00≥pD2 ≥5.51) | 90 |  |  |  |  |  | 1 (if 6.80≥pD2 ≥6.41) |  |
| OC(CNCCCCSc1ccccc1)COc1ccc(-c2nc3ccccc3[nH]2)cc1 (stereo not drawn) [Compound 23] |  |  |  |  |  | active | 6,05 -log CI50 (M) | 5,74 -log CI50 (M) | 0 (reduction <10 mm Hg) | 0 (if the frequency modification was comprised between +6 and -6) | 0 (if pD2 ≥6.81) |  |  |  |  |  |  |  |  |
| COCCc1ccc(OCC(O)CNC(C)C)cc1 (stereo not drawn) [Metroprolol, reference compound] | 65 times |  |  |  |  |  |  |  |  |  |  |  |  |  |  |  |  |  |  |
